Results taken from US20230405000A1, “TABLET FOR USE IN TREATING HUNTINGTON'S DISEASE AND METHOD OF MAKING THE SAME” (PTC THERAPEUTICS, INC., priority 2020, published 2023).
“Also recorded” adds a separate entry of the source.

Experiments:
[1] = Phase 1 study: safety and tolerability in healthy subjects; format: in vivo, human
Method: Phase 1 Dose Escalation Study was initiated to assess the safety and pharmacokinetics of Compound 1 Oral Tablets (5 mg and 50 mg) compared to placebo in healthy subjects.
(i) To characterize the safety and tolerability of single ascending doses of Compound 1 in healthy subjects; (ii) To characterize the safety and tolerability of Compound 1 administered for 14 or up to 21 days in healthy subjects; (iii) To characterize the pharmacokinetics in plasma and cerebrospinal fluid (CSF) after administration of Compound 1 for 7 days in healthy subjects; (iv) To characterize the food effect on the pharmacokinetics (PK) in plasma of Compound 1 after administration of a single dose of Compound 1 in healthy subjects; and, (v) To characterize the safety and tolerability of Compound 1 administered for up to 28 days in healthy subjects.
The study was monitored by a Safety Review Committee (SRC). […] Safety and tolerability was assessed by the SRC between each cohort prior to ascending from one dose level to the next higher dose level in Part 1 (single ascending dose [SAD]) and fart 2 (multiple ascending dose [MAD]), and prior to initiating Part 3 (CSF), Part 4 (FE), and Part 5.
The following parameters were defined as parameters regarding safety and tolerability: […]
Change from baseline to each scheduled time point up to EOS for vital signs; Change from baseline to each scheduled time point up to EOS for ECG parameters; Change from baseline to each scheduled time point up to EOS for clinical laboratory tests; Changes from baseline in C-SSRS scores (Part 2, Part 3, and Part 5 only); Treatment-emergent adverse events (AEs) up to EOS; Treatment-emergent AEs leading to premature discontinuation of study drug; Treatment-emergent serious adverse events (SAEs) up to FOS; and, Abnormalities in physical examination.

HTT mRNA = assay: Phase 1 study: HTT mRNA in whole blood of healthy volunteers (RT-PCR); format: in vivo, human
Source text: (i) To explore the effect of single dose of Compound 1 administered on huntingtin (HTT) premRNA splicing in the blood of healthy subjects; (i) To explore the effect of Compound 1 administered for 14 or up to 21 days on HTT pre-m RNA splicing and HTT protein levels in the blood of healthy subjects; (ii) To explore the effect of single dose of Compound 1 administered (with food) on HTT pre-mRNA splicing in the blood of healthy subjects; and, (iii) To explore the effect of Compound 1 administered for up to 28 days on HTT premRNA splicing and HTT protein levels in the blood of healthy subjects.
The single ascending dose (SAD) part of the study was randomized, double-blinded, and placebo controlled in healthy male and female subjects.
The multiple ascending (MAD) part of the study was randomized, double-blind, and placebo controlled in healthy male and female subjects. Up to five regimens are planned to be tested in up to 5 cohorts of 8 subjects each (Cohort 2.1 to 2.5). Within each cohort, 6 subjects were to receive Compound 1 and 2 subjects were to receive placebo. Subjects in Cohort 2.1 and 2.2 were to be dosed for 14 days, subjects in Cohort 2.3 to 2.5 were to be dosed for up to 21 days.
The amount of HTT mRNA was then evaluated by RT-PCR 6 hours after administration of Compound 1 on day 14.
Results from measurement of HTT RNA in the whole blood of human subject administered a placebo or 15 or 30 mg of Compound 1, as described in the Multiple Ascending Dose (MAD) study above are illustrated in FIG. 15. HTT splicing was monitored after the final dose at day 14, calculated as % HTT remaining from baseline (pre-dose day 0).

[2] = Phase 1 study: Compound 1 levels in CSF compared with plasma; format: in vivo, human
Source text: The concentrations of Compound 1 in plasma and CSF were to be assessed in an open-label design in healthy male and female subjects. A single dose of Compound 1 was to be administered daily for 7 days in 1 cohort of 6 subjects (Cohort 3.1) The dose level of Part 3 was to be determined based upon a review of the safety, tolerability, and PK data of Part 1 and Part 2 of the study. While the MAD dose was to be determined further in development, that dose and schedule was to be applied to this part of the study.
Eligibility was to be assessed during a screening period of up to 28 days. Subjects were to check into the clinic 1 day before dosing (Day −1). On the morning of Day 1 to Day 7, Compound 1 was to be orally administered after an overnight fast of at least 10 hours each day. Serial sampling of CSF and sampling of plasma for drug concentrations was to be performed on Day 7 The exact timing of the CSF and blood samples was to be determined based on the results of Part 1 and Part 2. Subjects were to be released from the clinic on Day 9 after all required study procedures are completed and if medically appropriate. A follow-up safety phone call was to occur 4 weeks (±1 week) after discharge on Day 9.
The CSF sampling enabled the evaluation of pharmacokinetics of Compound 1 in the CSF wherein Compound 1 levels in the CSF were compared with Compound 1 levels in plasma. […] The food effect portion enabled the evaluation of pharmacokinetics of Compound 1 in plasma after administration of a single dose of Compound 1 in healthy subjects.

Rat toxicology (NOAEL) = format: in vivo; settings: male rats
Method: The initial dose in the first cohort was ≥ 1/10 of the human equivalent dose (HED) estimated from the NOAEL (no observed adverse effect level) of the (male) rat, which is the most sensitive species, following the FDA guidance on the maximum recommended starting dose (MRSD) and EMA guidelines. The NOAEL of the rat is 6 mg/kg. […] The HED of 0.97 mg/kg was calculated; this scaled in a 70 kg human to 68 mg. Adjusting this dose to 1/10, the dose of the first cohort was 6.8; the actual administered dose will be 5 mg.

human HTT = assay: Transgenic mouse models of Huntington's disease; format: in vivo
Source text: An international application published as WO2020/005873 identified a genus of compounds that can be used in the treatment of HD, methods of making the same and pharmaceutical formulations of the same. […] At present, only symptomatic treatments are available. Thus, to date, there is no small molecule therapy available to slow the progression of HD. Accordingly, there is a need for small molecule disease-modifying therapies for HD (i.e. therapeutic options that can slow disease progression).
At the selected doses of 10 mg QD and 20 mg QD, the predicted percent full-length HTT mRNA decreases are within the target range of 30 to 50% reduction from baseline. […] Therefore, the observed preclinical HTT mRNA changes are anticipated to result in similar decreases in HTT protein levels in HD patients. Thus, based upon the totality of the clinical and preclinical safety data to date, and the anticipated reduction in HTT mRNA and protein derived from clinical data and pharmacokinetic-pharmacodynamic modeling, the doses of 10 mg and 20 mg are expected to be safe, well tolerated, and beneficial to subjects with HD.

[3] = Compound 1 in CSF and free plasma of non human primates; format: in vivo
Method: The two subjects in this cohort received 30 mg daily dose.

CC1(C)CC(n2nnc3cc(-c4ccc(-n5nccn5)cc4O)nnc32)CC(C)(C)N1 [Compound 1, 2-[3-(2,2,6,6-tetramethylpiperidin-4-yl)-3H-[1,2,3]triazolo[4,5-c]pyridazin-6-yl]-5-(2H-1,2,3-triazol-2-yl)phenol]
overall incidence of AEs ([1]; SAD and MAD portions, versus placebo): comparable between subjects who received placebo and those who received Compound 1
laboratory abnormalities or ECG findings ([1]; any dose, SAD and MAD portions): no clinically significant laboratory abnormalities or electrocardiogram (ECG) findings
safety and tolerability ([1]; healthy subjects, single doses 5 mg to 135 mg, multiple doses 15 mg and 30 mg up to 21 days): well-tolerated with no safety-related findings; also recorded: safe and generally well tolerated
lowering of HTT mRNA in whole blood (HTT mRNA; MAD cohort, 15 mg or 30 mg for 14 days, 6 hours after dose on day 14): dose-dependent lowering
time of treatment until HTT mRNA levels reached steady state (HTT mRNA; Multiple Ascending Dose Study): 4 to 5 days
lowering of HTT mRNA in whole blood (HTT mRNA; SAD cohort, 24 hours after single dose of 5, 15, 45, 90 or 135 mg): dose-dependent lowering
Compound 1 levels in the CSF compared with plasma ([2]; healthy subjects, 30 mg daily dose): equal to or greater than levels observed in plasma; also recorded: at least equivalent or greater than levels observed in the plasma
blood brain barrier penetration ([2]; humans): crossed the blood brain barrier
efflux ([2]; humans): not subject to efflux
observation that set the NOAEL (Rat toxicology (NOAEL)): germ cell exfoliation in epididymis and testes
relation of HTT pre-mRNA splicing to protein lowering (human HTT; bacterial artificial chromosome transgenic mouse model of HD): strong correlation between levels of HTT pre-mRNA splicing and the degree of protein lowering
reduction of human HTT production in vivo (human HTT; transgenic mouse models of Huntington's disease, results not yet published): effective in reducing human HTT production in vivo
blood brain barrier penetration [3]: crosses the Blood Brain Barrier
